Patent US7371780B2, “Use of calphostin C to treat drug-resistant tumor cells” (priority 2003, dated 2008)

Key:
MCF-7TAX cells [1] = experiment: Drug uptake, MCF-7TAX; format: cell-based, human; details: 2 μM doxorubicin or [3H]-paclitaxel
Experimental: (§1) FIG. 5 illustrates the effect of calphostin C (Cal-C) on drug uptake in MCF-7 (square symbols), MCF-7TAX (diamond symbols) and MCF-7DOX (triangular symbols) cells. After one-day growth, the cells were left untreated (closed symbols) or treated with 100 nM calphostin C for 2 h with light activation (open symbols). Cells were then washed and the medium replaced with medium containing 2 μM of doxorubicin (A) or [^3H]-paclitaxel (B). The cells were then trypsinized and drug accumulation measured by flow cytometry (A) or liquid scintillation counting (B) at indicated time points. The figures are representative of three independent experiments.

MCF-7 cells [2] = experiment: Flow cytometric sub-G1 DNA content, MCF-7; format: cell-based, human; details: 10 nM paclitaxel or 2 μM doxorubicin
Experimental: For flow cytometric analysis, cells at about 50% to 60% confluence were released from their flasks by trypsin treatment and washed with PBS. After centrifugation at 1000 rpm for 5 min, cells were then fixed by resuspension in 75% ethanol for 2 hours, collected by centrifugation, and resuspended in PI staining solution (see above) for 1 h. For each sample, approximately 2×10^4 cells were analyzed using a Beckman Coulter Epics® Elite flow cytometer. Fluorescence intensity upon stimulation with an argon-ion laser at 488 nm was measured using the PMT4 channel (625DL filter) and plotted against cell number. The percentage of cells with a sub-G1 DNA content was determined by the flow cytometer, adjusting the gates such that only cells with a fluorescence lower than the peak for untreated cells in G1 are counted (see FIG. 4).

MCF-7DOX cells [3] = experiment: Microscopic cell morphology, MCF-7DOX; format: cell-based, human; details: 2 μM doxorubicin, 24 h
Experimental: (§2) For microscopic observation, cells were seeded onto standard glass coverslips in 10 cm tissue culture plates with 10 ml of H21 medium and grown for 2 days until 40-50% confluence was obtained. After treatment with paclitaxel, doxorubicin or calphostin C, the cells on the glass coverslips were washed twice with PBS (2.7 mM KCl, 1.0 mM KH2PO4, 137 mM NaCl, 10 mM Na2HPO4, pH 7.4) and stained with acridine orange/ethidium bromide (each at 4 μg/ml in PBS) for 10 min at 37° C.. The coverslips were then washed three times in PBS and mounted onto standard glass slides for morphological evaluation. For propidium iodide (PI) staining, the cells on coverslips were washed twice with PBS and fixed in methanol (cooled to −20° C.) for 20 min. Thirty μl of propidium iodide (PI) staining solution (100 μg/ml PI, 0.1% sodium citrate, 100 μg/ml RNase A and 0.3% Nonidet P-40) were then applied to the coverslips for 5 min. […] The cells were then examined using a Zeiss Axiovert 100 inverted fluorescence microscope. […] For each sample, the number of dead cells was determined by visualization after ethidium bromide staining, whereby only dead cells which have lost membrane integrity allow entry of cell-impermeable ethidium bromide into cells to complex with DNA and induce bright red fluorescence. […] The images were recorded and overlayed using Northern Eclipse software (Empix Imaging Inc., Mississauga, ON).

MCF-7 cells [4] = experiment: Clonogenic assay, MCF-7 cells; format: cell-based, human; details: Homo sapiens, MCF7, 24 h drug, calphostin C light-activated 2 h, read-out: IC50 (concentration required to kill or inhibit the growth of 50% of cells)
Experimental: (§3) The breast cancer cell line MCF-7 (lot HTB-22) was obtained from the American […] (ATCC) and maintained in Dulbecco's H21 medium (MEM) supplemented with 10% Fetal Bovine Serum (FBS) (HyClone, Logan, Utah) in a humidified atmosphere containing 5% CO2 at 37° C. To establish drug resistant cell lines, MCF-7 cells were grown in the presence of either paclitaxel or doxorubicin, beginning at a concentration 1000-fold below that required to kill 50% of the cells (the IC50). The drug concentration was increased 3-fold every two weeks (two passages), with an aliquot of the cells removed for storage in liquid nitrogen before each increase in concentration. Dose escalation continued until all cells died, after which the cells able to tolerate the highest concentration of drug were thawed for subsequent study. In this way, paclitaxel-resistant (MCF-7TAX) and doxorubicin-resistant (MCF-7DOX) cell lines were established. The IC50 for each drug was determined using a clonogenic assay as outlined below. The drug resistant cells were kept in culture in the presence of the maximally tolerated drug dose. Before each experiment, the cell lines were grown for two days in the absence of drug after which fresh medium containing either calphostin C (Sigma Laboratories, Oakville, ON), doxorubicin (Adriamycin PFS®, USP, Mississauga, ON) or paclitaxel (Taxol, Bristol-Myers Squibb, Montreal, QC) was added at the concentrations indicated.
(§4) The sensitivity of MCF-7, MCF-7TAX and MCF-7DOX cells to calphostin C, paclitaxel or doxorubicin was determined using a clonogenic assay. Briefly, 2.5×10^5 cells were seeded into 25 cm^2 tissue culture flasks in Dulbecco's H21 medium supplemented with 10% FBS. The cells were allowed to grow overnight, after which the medium was removed and replaced with medium containing varying concentrations of paclitaxel, doxorubicin, or calphostin C (after 2 hours of light exposure to activate the molecule). […] The colonies present in 5 randomly selected fields were then counted by visual inspection. […]

[5] = test system: MCF-7DOX (doxorubicin-resistant) cells; experiment: Clonogenic assay, MCF-7DOX cells; format: cell-based, human; details: for fold resistance / lower sensitivity compared to MCF-7 cells: MCF-7DOX vs MCF-7
Experimental: as §3
The sensitivity of MCF-7, MCF-7TAX and MCF-7DOX cells to calphostin C, paclitaxel or doxorubicin was determined using a clonogenic assay. Briefly, 2.5×10^5 cells were seeded into 25 cm^2 tissue culture flasks in Dulbecco's H21 medium supplemented with 10% FBS. The cells were allowed to grow overnight, after which the medium was removed and replaced with medium containing varying concentrations of paclitaxel, doxorubicin, or calphostin C (after 2 hours of light exposure to activate the molecule). After 24 hours, the medium (including any floating cells) was transferred to 14 ml screw-capped tubes and centrifuged at 1000 rpm for 10 min. The adherent cells were then released from their flasks by trypsin treatment and suspended in 10 ml of H21 medium. The cell suspension was transferred to the previous tube and all cells harvested by centrifugation. The cell pellet was washed one more time with drug-free medium and resuspended in 300 μl of normal growth medium containing FBS. The cells were then added to 2.7 ml of a methylcellulose solution. The methylcellulose medium was prepared by combining 70 ml of a 2.6% (w/v) methylcellulose solution [Shin-Etsu Chemical Co., Tokyo, Japan] in Iscove's medium (Princess Margaret Hospital, Toronto, ON) with 30 ml of FBS. Three ml syringes equipped with a 16-gauge needle were used for transferring the viscous medium. The mixture was vigorously vortexed for 10 s to ensure an even distribution of cells within the viscous medium. The vortexed samples were then allowed to sit for 30 min to remove air bubbles. A 1.2 ml aliquot of the cell suspension was then transferred to a 6-well plate and the cells allowed to grow until colonies of >50 cells were visible by light microscopy for the various cell lines in the absence of drug. The colonies present in 5 randomly selected fields were then counted by visual inspection.
Calphostin C (Sigma Laboratories, Oakville, ON) was prepared as a 100 μM stock solution in dimethylsulfoxide (Sigma Laboratories, Oakville, ON) and stored at −70° C. in 100 μl aliquots. […]

MCF-7DOX cells [6] = experiment: Drug uptake, MCF-7DOX; format: cell-based, human; details: 2 μM doxorubicin or [3H]-paclitaxel
Experimental: as §1

[7] = test system: caspase-8 and PARP in Jurkat cells; experiment: Immunoblotting of apoptosis markers, Jurkat (positive control); format: cell-based; details: 3 μg/ml etoposide, 24 hours
Experimental: FIG. 9 illustrates the effect of calphostin C on caspase 8 cleavage, PARP cleavage, and cytochrome C release in MCF-7, MCF-7FDOX, and MCF-7TAX cells. The MCF-7, MCF-7FDOX, and MCF-7TAX cell lines were incubated with (+) or without (−) 100 nM calphostin C, after which whole cell extracts were monitored for caspase-8 and cytochrome C levels by immunoblotting as described in Materials and Methods. A similar experiment was also performed, except that mitochondrial (M) and cytosolic (C) fractions were prepared as described in Materials and Methods to monitor by immunoblotting the release of cytochrome C from mitochondria into the cytosol in response to calphostin C. As positive controls, similar experiments were conducted using Jurkat cells, with (+) or without (−) the addition of 3 μg/ml etoposide for 24 hours.
Extraction of proteins from whole cells was performed using RIPA buffer (1% NP40, 0.5% sodium deoxycholate, 0.1% SDS, 1 Complete™ protease inhibitor tablet in 50 ml of PBS). Prior to use, the RIPA buffer (50 ml) was supplemented with 500 μl each of both 100 mM sodium orthovanadate and 10 mg/ml phenylmethylsulfonyl fluoride. Cultured cells were grown as a monolayer and allowed to reach 70-90% confluence in 10 cm tissue culture plates. […]

[8] = test system: MCF-7TAX (paclitaxel-resistant) cells; experiment: Clonogenic assay, MCF-7TAX cells; format: cell-based, human
Experimental: as §3, §4

MCF-7 cells [9] = experiment: Microscopic cell morphology (bright field, AO/EB, PI), MCF-7; format: cell-based, human; details: 10 nM paclitaxel, 24 hours, PI staining
Experimental: as §2

MCF-7TAX cells [10] = experiment: Microscopic cell morphology, MCF-7TAX; format: cell-based, human; details: 10 nM paclitaxel, 24 h
Experimental: as §2

SMILES	drug uptake compared to MCF-7 cells (MCF-7TAX cells [1])	time of large increase in number of cells with sub-G1 DNA content after drug administration (MCF-7 cells [2])	change in morphology over untreated cells (MCF-7DOX cells [3])	IC50 (MCF-7 cells [4])	IC50 ([5]; Homo sapiens, MCF7-DOX, MCF-7DOX cells, 24 h drug, calphostin C light-activated 2 h)	fold resistance / lower sensitivity compared to MCF-7 cells [5]	drug uptake compared to MCF-7 cells (MCF-7DOX cells [6])	caspase-8 and PARP cleavage [7]	IC50 ([8]; Homo sapiens, MCF-7TAX cells, 24 h drug, calphostin C light-activated 2 h)	fold higher IC50 than for MCF-7 cells ([8]; MCF-7TAX vs MCF-7)	percentage of adherent cells multinucleated (MCF-7 cells [9])	change in morphology over untreated cells (MCF-7TAX cells [10])
COc1cccc2c1C(=O)c1c(O)c3c(c(O)c1C2=O)C[C@@](O)(C(=O)CO)C[C@@H]3O[C@H]1C[C@H](N)[C@H](O)[C@H](C)O1 [doxorubicin]	dramatically lower	approximately 24 hours	no change in morphology	10 nM	600 nM	60 fold	dramatically lower					
COc1cc([C@@H]2c3cc4c(cc3[C@@H](O[C@@H]3O[C@@H]5CO[C@@H](C)O[C@H]5[C@H](O)[C@H]3O)[C@H]3COC(=O)[C@H]23)OCO4)cc(OC)c1O [etoposide]								could induce caspase-8 and PARP cleavage				
CC(=O)O[C@H]1C(=O)[C@@]2(C)[C@H]([C@H](OC(=O)c3ccccc3)[C@]3(O)C[C@H](OC(=O)[C@H](O)[C@@H](NC(=O)c4ccccc4)c4ccccc4)C(C)=C1C3(C)C)[C@]1(OC(C)=O)CO[C@@H]1C[C@@H]2O [paclitaxel]	dramatically lower	approximately 24 hours		0.5 nM		approximately 4000 fold	dramatically lower		27 nM	54 fold	over 60%	no change in morphology
